Laboratory results published in article PMC3961306, “Comparison of the Cancer Gene Targeting and Biochemical Selectivities of All Targeted Kinase Inhibitors Approved for Clinical Use” (PLoS ONE, 2014).
pIC50: −log10 of the molar value. Where two headings read alike, the source gives them in different places.

What was measured:
[1] = tested on: forty-four human cancer cell lines; assay: Cell proliferation assay (ATPlite, 72 hours) in the 44 cell line Oncolines panel; format: cell-based; settings: Homo sapiens
[2] = target: panel of more than 300 wild-type and mutant kinases (313 kinase panel) (Homo sapiens, UniProt P22612); assay: Kinase profiling in a biochemical assay panel (mobility shift assays and ELISA), %-inhibition at 1 μM; selectivity entropy; settings: kinase PKACγ; 1 μM
[3] = target: panel of more than 300 wild-type and mutant kinases (313 kinase panel) (Homo sapiens, UniProt P10721, T670I); assay: as above; settings: kinase KIT(T670I); compound at 1 μM
[4] = target: panel of more than 300 wild-type and mutant kinases (313 kinase panel) (Homo sapiens, UniProt Q04912); assay: as above; settings: kinase RON; 1 μM
[5] = target: panel of more than 300 wild-type and mutant kinases (313 kinase panel) (Homo sapiens, UniProt P04049); assay: as above; settings: kinase RAF1; 1 μM
[6] = target: panel of more than 300 wild-type and mutant kinases (313 kinase panel) (Homo sapiens, UniProt Q8N4C8); assay: as above; settings: kinase MINK; 1 μM
[7] = target: panel of more than 300 wild-type and mutant kinases (313 kinase panel) (Homo sapiens, UniProt Q9HC98); assay: as above; settings: kinase NEK6; 1 μM

panel of more than 300 wild-type and mutant kinases (313 kinase panel) (Homo sapiens, UniProt P04049), sequence (P04049 whole entry, change not shown): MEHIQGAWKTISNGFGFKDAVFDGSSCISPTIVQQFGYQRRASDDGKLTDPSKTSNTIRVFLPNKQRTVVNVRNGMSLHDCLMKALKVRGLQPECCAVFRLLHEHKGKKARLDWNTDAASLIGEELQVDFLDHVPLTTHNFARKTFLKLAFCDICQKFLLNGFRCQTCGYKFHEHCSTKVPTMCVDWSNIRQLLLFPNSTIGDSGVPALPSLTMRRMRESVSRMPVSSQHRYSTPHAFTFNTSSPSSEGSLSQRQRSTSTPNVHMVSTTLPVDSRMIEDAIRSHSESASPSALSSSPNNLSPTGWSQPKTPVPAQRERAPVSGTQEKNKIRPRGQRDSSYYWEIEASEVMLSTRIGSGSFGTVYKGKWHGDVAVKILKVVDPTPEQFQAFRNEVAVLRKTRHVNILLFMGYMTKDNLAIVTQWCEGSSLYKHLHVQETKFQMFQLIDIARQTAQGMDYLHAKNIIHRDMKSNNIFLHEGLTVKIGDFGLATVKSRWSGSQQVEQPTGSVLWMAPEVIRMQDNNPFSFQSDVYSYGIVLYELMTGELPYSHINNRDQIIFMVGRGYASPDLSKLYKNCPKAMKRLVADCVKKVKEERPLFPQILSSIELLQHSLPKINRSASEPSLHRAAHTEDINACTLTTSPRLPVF
panel of more than 300 wild-type and mutant kinases (313 kinase panel) (Homo sapiens, UniProt P10721, T670I), sequence (P10721 26-976 T670I): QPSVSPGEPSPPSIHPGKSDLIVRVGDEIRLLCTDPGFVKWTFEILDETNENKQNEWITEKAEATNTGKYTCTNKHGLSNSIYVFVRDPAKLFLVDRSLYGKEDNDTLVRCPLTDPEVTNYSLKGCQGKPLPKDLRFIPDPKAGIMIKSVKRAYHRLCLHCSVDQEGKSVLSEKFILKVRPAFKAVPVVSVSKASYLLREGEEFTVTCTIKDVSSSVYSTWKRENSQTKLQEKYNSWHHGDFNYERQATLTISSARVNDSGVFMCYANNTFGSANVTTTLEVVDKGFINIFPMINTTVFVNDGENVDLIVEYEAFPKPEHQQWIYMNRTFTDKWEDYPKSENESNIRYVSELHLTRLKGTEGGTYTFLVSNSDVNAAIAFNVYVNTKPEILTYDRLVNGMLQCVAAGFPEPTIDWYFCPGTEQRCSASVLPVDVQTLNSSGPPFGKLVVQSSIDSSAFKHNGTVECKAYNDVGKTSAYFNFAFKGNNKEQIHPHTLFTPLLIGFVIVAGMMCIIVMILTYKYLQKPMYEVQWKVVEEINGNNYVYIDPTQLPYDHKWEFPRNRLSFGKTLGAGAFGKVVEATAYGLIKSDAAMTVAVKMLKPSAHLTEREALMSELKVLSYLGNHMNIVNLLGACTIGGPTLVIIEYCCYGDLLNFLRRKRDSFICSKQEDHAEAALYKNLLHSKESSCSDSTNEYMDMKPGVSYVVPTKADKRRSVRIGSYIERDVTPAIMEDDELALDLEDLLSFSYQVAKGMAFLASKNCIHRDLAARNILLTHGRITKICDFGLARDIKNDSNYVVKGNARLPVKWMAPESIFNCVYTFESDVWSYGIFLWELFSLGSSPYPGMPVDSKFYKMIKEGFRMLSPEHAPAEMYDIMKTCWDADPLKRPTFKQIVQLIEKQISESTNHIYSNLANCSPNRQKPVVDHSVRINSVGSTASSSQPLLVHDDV
panel of more than 300 wild-type and mutant kinases (313 kinase panel) (Homo sapiens, UniProt Q8N4C8), sequence (Q8N4C8 whole entry, change not shown): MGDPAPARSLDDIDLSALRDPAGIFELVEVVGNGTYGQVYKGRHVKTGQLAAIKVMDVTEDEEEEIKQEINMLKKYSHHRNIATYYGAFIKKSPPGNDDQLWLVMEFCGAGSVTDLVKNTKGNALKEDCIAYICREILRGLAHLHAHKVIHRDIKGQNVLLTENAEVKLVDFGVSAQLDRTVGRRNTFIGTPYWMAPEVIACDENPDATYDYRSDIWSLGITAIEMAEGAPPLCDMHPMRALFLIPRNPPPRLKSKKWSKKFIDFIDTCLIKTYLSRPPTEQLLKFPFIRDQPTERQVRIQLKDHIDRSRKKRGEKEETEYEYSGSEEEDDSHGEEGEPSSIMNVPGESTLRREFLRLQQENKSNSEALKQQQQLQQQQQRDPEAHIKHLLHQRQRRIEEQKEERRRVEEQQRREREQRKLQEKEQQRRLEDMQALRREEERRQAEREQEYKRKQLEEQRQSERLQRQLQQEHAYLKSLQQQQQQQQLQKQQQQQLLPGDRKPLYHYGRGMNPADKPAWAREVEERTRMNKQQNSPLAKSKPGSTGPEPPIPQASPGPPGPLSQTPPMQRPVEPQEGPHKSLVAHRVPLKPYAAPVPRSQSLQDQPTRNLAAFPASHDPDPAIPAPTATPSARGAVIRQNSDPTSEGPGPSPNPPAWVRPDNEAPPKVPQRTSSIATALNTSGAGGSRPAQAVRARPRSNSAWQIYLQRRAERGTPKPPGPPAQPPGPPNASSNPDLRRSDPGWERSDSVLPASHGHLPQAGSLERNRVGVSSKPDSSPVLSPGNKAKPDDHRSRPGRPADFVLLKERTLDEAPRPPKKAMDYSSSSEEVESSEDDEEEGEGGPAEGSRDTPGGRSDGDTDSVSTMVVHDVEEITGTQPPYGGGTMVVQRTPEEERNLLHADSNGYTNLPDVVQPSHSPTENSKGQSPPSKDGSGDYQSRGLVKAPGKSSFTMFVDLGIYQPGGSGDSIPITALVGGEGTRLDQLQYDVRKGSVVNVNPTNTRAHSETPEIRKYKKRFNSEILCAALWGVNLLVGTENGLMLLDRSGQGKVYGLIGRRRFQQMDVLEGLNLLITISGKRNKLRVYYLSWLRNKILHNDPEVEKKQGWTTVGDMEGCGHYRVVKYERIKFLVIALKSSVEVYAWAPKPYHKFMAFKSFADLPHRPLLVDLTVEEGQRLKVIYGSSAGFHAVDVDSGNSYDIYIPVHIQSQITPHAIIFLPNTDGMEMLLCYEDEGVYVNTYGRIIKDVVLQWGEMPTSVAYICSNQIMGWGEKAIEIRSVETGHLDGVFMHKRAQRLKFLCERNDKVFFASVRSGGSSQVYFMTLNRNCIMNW

In the case of `CO[C@H]1C[C@@H]2CC[C@@H](C)[C@@](O)(O2)C(=O)C(=O)N2CCCC[C@H]2C(=O)O[C@H]([C@H](C)C[C@@H]2CC[C@@H](OC(=O)C(C)(CO)CO)[C@H](OC)C2)CC(=O)[C@H](C)/C=C(\C)[C@@H](O)[C@@H](OC)C(=O)[C@H](C)C[C@H](C)/C=C/C=C/C=C/1C` [temsirolimus], the pIC50 ([1]; A 172, read-out: cell panel IC50, A-172) was 8.00, the pIC50 ([1]; A204, cell line A-204, read-out: cell panel IC50, A-204) was 5.61 and the pIC50 ([1]; A498, read-out: cell panel IC50, A-498) was 5.82. The pIC50 ([1]; A549, read-out: cell panel IC50, A-549) was 6.13, the pIC50 ([1]; A-375, cell line A375, read-out: cell panel IC50, A375) was under 5.50 and the pIC50 ([1]; A-427, read-out: cell panel IC50, A-427) was 7.02. The pIC50 ([1]; AU565, read-out: cell panel IC50, AU-565) was 7.20, the pIC50 ([1]; BT-549, read-out: cell panel IC50, BT-549) was 7.77 and the pIC50 ([1]; HCT-116, read-out: cell panel IC50, HCT-116) was 6.60. It also gave a pIC50 ([1]; K562, read-out: cell panel IC50, K-562) of under 5.50, a pIC50 ([1]; LS174T, read-out: cell panel IC50, LS 174T) of 7.06 and a pIC50 ([1]; SHP77, cell line SHP-77, read-out: cell panel IC50, SHP-77) of under 5.50. The pIC50 ([1]; SW-620, cell line SW620, read-out: cell panel IC50, SW620) was under 5.50, the pIC50 ([1]; U2OS, cell line U-2 OS, read-out: cell panel IC50, U-2 OS) was 7.39 and the pIC50 ([1]; cell line J82, read-out: cell panel IC50, J82) was 7.59. The pIC50 ([1]; cell line PA-1, read-out: cell panel IC50, PA-1) was 5.88, the pIC50 ([1]; cell line SJCRH30, read-out: cell panel IC50, SJCRH30) was under 5.50 and the pIC50 ([1]; cell line SR, read-out: cell panel IC50, SR) was 8.10. It also gave a pIC50 ([1]; U-87 MG cell line, ATPlite, 72 hours, read-out: IC50 in cell proliferation assay (table S5 cellpanel data)) of 6.34, a pIC50 ([1]; cell line 769-P, read-out: cell panel IC50, 769-P) of 8.05 and a pIC50 ([1]; cell line 786-0, read-out: cell panel IC50, 786-0) of 6.37. For the same compound, the pIC50 ([1]; cell line ACHN, read-out: cell panel IC50, ACHN) was under 5.50, the pIC50 ([1]; cell line AN3 CA, read-out: cell panel IC50, AN3 CA) was 6.10 and the pIC50 ([1]; cell line BT-20, read-out: cell panel IC50, BT-20) was 7.48. The pIC50 ([1]; cell line BxPC-3, read-out: cell panel IC50, BxPC-3) was under 5.50, the pIC50 ([1]; cell line C-33 A, read-out: cell panel IC50, C-33 A) was 7.47 and the pIC50 ([1]; cell line CAL 27, read-out: cell panel IC50, CAL 27) was under 5.50. For the same compound, the pIC50 ([1]; cell line CCRF-CEM, read-out: cell panel IC50, CCRF-CEM) was 7.82, the pIC50 ([1]; cell line DLD-1, read-out: cell panel IC50, DLD-1) was 6.90 and the pIC50 ([1]; cell line FaDu, read-out: cell panel IC50, FaDu) was under 5.50. It also gave a pIC50 ([1]; cell line HCT-15, read-out: cell panel IC50, HCT-15) of 5.61, a pIC50 ([1]; cell line Hs 578T, read-out: cell panel IC50, Hs 578T) of 7.00 and a pIC50 ([1]; cell line Jurkat E6.1, read-out: cell panel IC50, Jurkat E6.1) of 6.91. The pIC50 ([1]; cell line LoVo, read-out: cell panel IC50, LoVo) was under 5.50, the pIC50 ([1]; cell line MG-63, read-out: cell panel IC50, MG-63) was 5.65 and the pIC50 ([1]; cell line MOLT-4, read-out: cell panel IC50, MOLT-4) was 7.68. For the same compound, the pIC50 ([1]; cell line MeWo, read-out: cell panel IC50, MeWo) was 7.72, the pIC50 ([1]; cell line NCI-H82, read-out: cell panel IC50, NCI-H82) was under 5.50 and the pIC50 ([1]; cell line NCI-H460, read-out: cell panel IC50, NCI-H460) was 7.33. It also gave a pIC50 ([1]; cell line OVCAR-3, read-out: cell panel IC50, OVCAR-3) of under 5.50, a pIC50 ([1]; cell line RPMI-7951, read-out: cell panel IC50, RPMI-7951) of 8.92 and a pIC50 ([1]; cell line SK-N-AS, read-out: cell panel IC50, SK-N-AS) of 6.62. The pIC50 ([1]; cell line SW48, read-out: cell panel IC50, SW48) was under 5.50, the pIC50 ([1]; cell line SW480, read-out: cell panel IC50, SW480) was 7.74 and the “%-inhibition of PKACγ” value [2] was -6%. For the same compound, the “%-inhibition of KIT(T670I)” value [3] was -4.27%, the “%-inhibition of RON” value [4] was -3% and the “%-inhibition of RAF1” value [5] was -0.648%. For the same compound, the “%-inhibition of MINK” value [6] was -4% and the “%-inhibition of NEK6” value [7] was -3.31%.
